Measured values as given in patent US12428389B2, “Diarylamide compound and application thereof” (Sunshine Lake Pharma Co., Ltd., priority 2019, dated 2025).
Read-outs that look alike come from different tables or passages of the source.

What was measured:
UT-B [1] = molecular target: T1, UT-B (Rattus norvegicus, UniProt P97689); experiment: erythrocyte lysis model, rat erythrocytes; type: cell-based, rats; details: concentration when the erythrocyte lysis rate of rats was 50%; read-out: IC50 rats
T1 construct: endogenous in cells; host or cells: erythrocytes of SD rats
T1 sequence (P97689 1-384): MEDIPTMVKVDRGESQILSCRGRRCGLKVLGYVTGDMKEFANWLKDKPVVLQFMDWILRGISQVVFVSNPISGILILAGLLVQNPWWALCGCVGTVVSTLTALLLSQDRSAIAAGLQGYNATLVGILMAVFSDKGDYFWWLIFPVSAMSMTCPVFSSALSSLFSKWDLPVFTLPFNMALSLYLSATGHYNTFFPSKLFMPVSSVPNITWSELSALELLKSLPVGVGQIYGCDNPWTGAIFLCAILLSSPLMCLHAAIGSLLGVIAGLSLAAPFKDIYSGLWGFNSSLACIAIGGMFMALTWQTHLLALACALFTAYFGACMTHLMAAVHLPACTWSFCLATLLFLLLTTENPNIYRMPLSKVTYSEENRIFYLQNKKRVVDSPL
Method: (§1) Erythrocyte lysis rate was calculated:
(§2) The formula for calculating the lysis rate percentage of erythrocytes, wherein Atest was the absorbance value of the test well, Aneg was the absorbance value of the negative control well, and Apos was the absorbance value of the positive control well. Erythrocyte lysis rate was calculated by measuring absorption at a wavelength of 710 nm.
(§3) The erythrocytes of three species of human, rats (SD rats) and mice (C57 mice) were taken, and urea transporter inhibitors were preliminarily screened from the above screening compound library by using the erythrocyte urea transporter inhibitor screening model.

human UT-B = molecular target: T2, human UT-B (Homo sapiens, UniProt Q13336); experiment: erythrocyte lysis model, human erythrocytes; type: cell-based
T2 construct: endogenous in cells; host or cells: human erythrocytes
T2 sequence (Q13336 1-389): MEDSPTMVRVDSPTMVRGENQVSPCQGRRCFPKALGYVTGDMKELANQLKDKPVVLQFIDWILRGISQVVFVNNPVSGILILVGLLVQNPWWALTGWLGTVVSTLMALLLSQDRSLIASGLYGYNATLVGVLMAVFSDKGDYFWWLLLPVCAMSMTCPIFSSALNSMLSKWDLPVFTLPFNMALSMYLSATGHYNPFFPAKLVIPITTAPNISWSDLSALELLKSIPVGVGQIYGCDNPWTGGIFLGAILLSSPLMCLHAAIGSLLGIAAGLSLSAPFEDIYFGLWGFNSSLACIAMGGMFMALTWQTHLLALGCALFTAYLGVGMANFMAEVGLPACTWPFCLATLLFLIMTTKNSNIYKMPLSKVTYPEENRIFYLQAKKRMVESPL
Method: as §1, §2, §3

UT-B [2] = molecular target: T3, UT-B (Mus musculus, UniProt Q8VHL0); experiment: erythrocyte lysis model, mouse erythrocytes; type: cell-based; details: concentration when the erythrocyte lysis rate of mice was 50%
T3 construct: endogenous in cells; host or cells: erythrocytes of C57 mice
T3 sequence (Q8VHL0 1-384): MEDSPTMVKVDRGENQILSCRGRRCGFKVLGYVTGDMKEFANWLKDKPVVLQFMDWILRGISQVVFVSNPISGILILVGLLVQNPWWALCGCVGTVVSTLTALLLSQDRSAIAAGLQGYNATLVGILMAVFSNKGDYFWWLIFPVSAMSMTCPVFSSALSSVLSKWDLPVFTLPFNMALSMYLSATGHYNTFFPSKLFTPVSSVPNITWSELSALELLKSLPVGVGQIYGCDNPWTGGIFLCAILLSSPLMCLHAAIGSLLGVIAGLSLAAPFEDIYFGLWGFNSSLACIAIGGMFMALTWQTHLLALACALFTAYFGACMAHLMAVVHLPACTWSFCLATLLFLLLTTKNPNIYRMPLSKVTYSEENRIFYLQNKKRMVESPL
Method: as §1, §2, §3

[3] = class of the IC50 to human UT-B, read-out: Activity level
[4] = concentration when the erythrocyte lysis rate of human was 50%, read-out: IC50 human

| Compound | IC50 (UT-B [1]) [nM] | IC50 (human UT-B; [3]) [nM] | IC50 (human UT-B; [4]) [nM] | IC50 (UT-B [2]) [nM] |
| --- | --- | --- | --- | --- |
| CNC(=O)c1cccc(NC(=O)c2ccc([N+](=O)[O-])o2)c1 [Example 53, N-(3-(methylcarbamoyl)phenyl)-5-nitrofuran-2-carboxamide] | 15 | < 10000 | 23 | 290 |
| CC(C)CNC(=O)c1cccc(NC(=O)c2ccc([N+](=O)[O-])o2)c1 [Example 57, N-(3-(isobutylcarbamoyl)phenyl)-5-nitrofuran-2-carboxamide] | 90 | < 10000 | 1420 | 500 |
| Cc1cccc(NC(=O)c2ccc([N+](=O)[O-])o2)c1 [Example 28, N-(3-methylphenyl)-5-nitrofuran-2-carboxamide] | 3910 | < 10000 | 3660 | 30500 |
| CCOC(=O)c1cc(NC(=O)c2ccc([N+](=O)[O-])o2)[nH]n1 [Example 77, ethyl 5-(5-nitrofuran-2-carboxamide)-1H-pyrazole-3-carboxylate] | 7810 | < 10000 | 1630 | 11500 |
| CNC(=O)c1cc(C)cc(NC(=O)c2ccc([N+](=O)[O-])o2)c1 [Example 64, N-(5-methyl-3-methylcarbamoylphenyl)-5-nitrofuran-2-carboxamide] | 320 | < 10000 | 1080 | 2790 |
| CC(=O)c1cccc(NC(=O)c2ccc([N+](=O)[O-])o2)c1 [Example 46, N-(3-acetylphenyl)-5-nitrofuran-2-carboxamide] | 490 | < 10000 | 1840 | 2460 |
| CNC(=O)c1cc(F)cc(NC(=O)c2ccc([N+](=O)[O-])o2)c1 [Example 66, N-(5-fluoro-3-methylcarbomoylphenyl)-5-nitrofuran-2-carboxamide] | 870 | < 10000 | 3290 | 2220 |
| CN(C)CC(=O)Nc1ccc(NC(=O)c2ccc([N+](=O)[O-])o2)cc1 [Example 71, N-(4-(2-dimethylamino)acetamidophenyl)-5-nitrofuran-2-carboxamide] | 570 | < 10000 | 1250 | 5410 |
| NCc1ccc(NC(=O)c2ccc([N+](=O)[O-])o2)cc1 [Example 51, N-(4-aminomethylphenyl)-5-nitrofuran-2-carboxamide] | 490 | < 10000 | 940 | 1690 |
| ethyl 2-acetamido-5-(5-nitrofuran-2-carboxamide) benzoate [Example 75] | 4810 | < 10000 | 370 | 6390 |
| O=C(Nc1cccc(O)c1)c1ccc([N+](=O)[O-])o1 [Example 32, N-(3-hydroxyphenyl)-5-nitrofuran-2-carboxamide] | 670 | < 10000 | 910 | 2390 |
| Nc1cccc(NC(=O)c2ccc([N+](=O)[O-])o2)c1 [Example 34, N-(3-aminophenyl)-5-nitrofuran-2-carboxamide] | 1800 | < 10000 | 3580 | 10500 |
| N-(4-fluoro-3-methylcarbomoylphenyl)-5-nitrofuran-2-carboxamide [Example 65] | 18300 | 20000 to 80000 | 23900 | 4380 |
| Cn1ccc(NC(=O)c2ccc([N+](=O)[O-])o2)n1 [Example 21, N-(1-methyl-1H-pyrazol-3-yl)-5-nitrofuran-2-carboxamide] | 1100 | < 10000 | 2210 | 8510 |
| CCOC(=O)c1c[nH]nc1NC(=O)c1ccc([N+](=O)[O-])o1 [Example 76, ethyl 5-(5-nitrofuran-2-carboxamide)-1H-pyrazole-4-carboxylate] | – | > 80000 | > 80000 | 15000 |
